# Values quoted from earlier work as cited in US11492588B2, “Lactococcus lactis subsp. lactis CCFM1018 and application thereof in preparation of food and medicine for excreting plasticizer” (priority 2018, dated 2022).
# Conditions: human body
structure (smiles),measurement,setting,value
"CCCCC(CC)COC(=O)c1ccccc1C(=O)OCC(CC)CCCC (stereo not shown) [DEHP, di(2-ethylhexyl) phthalate]",Absorption and distribution period,,4 to 8 h
same,Time within which most of the DEHP is completely metabolized,,≤ 24 h
same,Share converted into five secondary metabolites and excreted in urine,24 h after entry,about 67%
same,Share directly excreted in urine,24 h after entry,less than 10%
